Here are results for one molecule from EPA's ToxValDB 9.5 (doi:10.2903/j.efsa.2008.140r).

≈ marks a conversion by molar mass, not a printed value. Where only a bound is given, the exact number is not on record here.

Series [1] concerns Colinus virginianus. Particulars: acute; oral; mortality.
Series [2] has as its system Tagia sp.
Series [3] relates to Typhlodromus pyri. Particulars: not reported; other.
Series [4] relates to Oncorhynchus mykiss.
Series [5] deals with Canidae. Particulars: chronic; duration: 1 years; oral; Dog Other; clinical signs.
For series [6], the system named is Daphnia magna. Particulars: chronic/long-term; duration: 21 days; reproduction.
Series [7] concerns Rattus norvegicus. Particulars: for NOAEL: chronic.

The NOAEL is the highest dose or exposure tested at which no adverse effect was seen. `CCN(CC)C(=O)C(C)Oc1cccc2ccccc12` (stereo unspecified) [Napropamide]: the LD50 in series [1] was over 2250 mg/kg-day; in series [7] (acute, mortality), 4680 mg/kg-day. Moreover, the LC50 is 564 mg/kg in series [2] (acute, duration: 14 days, mortality) and 6.6 µg/mL (≈ 24.3 µM) in series [4] (acute, duration: 96 hours, mortality). For the same molecule, the NOEC in series [2] (chronic/long-term, reproduction) amounted to 60 mg/kg; in series [4] (chronic/long-term, duration: 28 days, growth) it was 1.1 mg/L; in series [6] it was 4.3 mg/L. In series [3], the LEL was found to be 4500 g/ha. In addition, the no-observed-adverse-effect level (NOAEL) in series [5] came out at 50 mg/kg-day; in series [7] (duration: 2 years, oral, body weight), 30 mg/kg-day; in series [7] (mortality) it was 30 mg/kg-day.
